One series deals with HT 29. In words: Growth inhibition test (MTT) for cytotoxic properties, HT 29. The conditions noted are these: read-out: IC50/nM HT 29.
The test system of the next series is SW 480. In words: Growth inhibition test (MTT) for cytotoxic properties, SW 480. The conditions noted are these: read-out: IC50/nM SW 480.
In another series the test system is B16F10. In words: Growth inhibition test (MTT) for cytotoxic properties, B16F10. To be noted: read-out: IC50/nM B16F10.
Series [1] concerns mouse bone marrow stem cells. In words: Inhibition of the CSF-induced proliferation of mouse bone marrow stem cells. The conditions noted are these: recombinant murine GM-CSF, 7 days, colony count.
Description: Bone marrow cells were washed out of mice femurs. 10^5 cells were incubated at 37° C. and 7% CO2 in McCoy 5A medium (0.3% agar) together with recombinant murine GM-CSF (Genzyme; stem cell colony formation) and the substances (10^−4 to 100 μg/ml). 7 days later, the colonies (<50 cells) and clusters (17-50 cells) were counted.
The test system of series [2] is large-cell human lung tumour xenograft LXFL 529. In words: In vivo inhibition of tumour growth in the nude mouse model. The conditions noted are these: for Survival time: LXFL 529 nude mice, individual animals; for therapeutic efficacy (tumour remission): maximum tolerable dose (MTD) and ½ MTD, LXFL 529.
Description: For all in vivo experiments for investigation of the inhibition of tumour growth, athymic nude mice (NMRI nu/nu strain) were used. The selected large-cell lung carcinoma LXFL 529 was grown by serial passage in nude mice. The human origin of the tumour was confirmed by isoenzymatic and immunohistochemical methods.
The tumour was implanted subcutaneously into both flanks of small nu/nu nude mice 6 to 8 weeks old. […] The mice were assigned to the treatment group and the control group (5 mice per group with 8-10 assessable tumours) by randomization.
The size of the tumours was measured in two dimensions by means of a slide gauge. The tumour volume, which correlated well with the cell count, was then used for all evaluations. The volume was calculated according to the formula “length×breadth×breadth/2” ([a×b^2]/2, a and b represent two diameters at right angles).
The values of the relative tumour volume (RTV) were calculated for each individual tumour by dividing the tumour size on day X with the tumour size on day 0 (at the time of randomization). The mean values of the RTV were then used for the further evaluation.
The inhibition of the tumour volume (relative tumour volume of the test group/control group×100, T/C in %) was the final measured value.
The administration of the compounds was carried out intravenously (i.v.), for example on day 0, 1 and 2 after randomization, the total dose per day being split over 2 administrations.
Where [3] appears, read: HT 29 cells, MTT, growth checked after day 6.
Setting [4] is: SW 480 cells, MTT, growth checked after day 6.
The mark [5] stands for this setting: B16F10 cells, MTT, growth checked after day 6.
Where [6] appears, read: 16 mg/kg/day i.v., LXFL 529, optimum on day 28.

Where “and” joins values, the source holds several entries; their conditions need not be identical. Identical values can stand only once. Counter-ions that a name gives are not always drawn. Like-named read-outs stand apart in the source and are kept apart here.

Description for B16F10: (§1) The human large intestine cell lines SW 480 and HT 29 (ATCC No. CCL 228 and HBT 38) and the mouse melanoma cell line B16F10 (CRL 6475) were grown in Roux dishes in RPMI 1640 medium with addition of 10% FCS. They were then trypsinized and taken up in RPMI plus 10% FCS to a cell count of 50,000 cells/ml for SW 480 and HT 29 and 20,000 cells for B16F10. 100 μl of cell suspension/well were added to a 96 microwell plate and incubated for 1 day at 37° C. in a CO2 incubator. A further 100 μl of RPMI medium and 1 μl of DMSO containing the test substances were then added. The growth was checked after day 6. To do this, 25 μl of MTT solution (3-(4,5-dimethylthiazol-2-yl)-2,5-diphenyltetrazolium bromide) having a starting concentration of 5 mg/ml of H2O were added to each microwell. Incubation was carried out for 5 hours in a CO2 incubator at 37° C. The medium was then aspirated and 100 μl of i-propanol/well were added. After shaking for 30 min with 100 μl of H2O, the extinction was measured at 595 nm using a multiplate reader (Bio.) 3550 UV.
Description for HT 29: as §1
Description for SW 480: as §1

For `CC[C@@]1(OC(=O)[C@@H](CC(C)C)NC(=O)[C@H](CCCNC(=N)N)NC(=S)Nc2ccc(OC3O[C@@H](C)[C@@H](O)[C@@H](OC)[C@@H]3O)cc2)C(=O)OCc2c1cc1n(c2=O)Cc2cc3ccccc3nc2-1` (stereo partly drawn) [Example 5, 20(S)-20-O-{N^α-[O-(3-O-Methyl-β-L-fucopyranosyl)-4-hydroxy-phenylamino-thiocarbonyl]-L-arginyl-D-leucyl}-camptothecin], the IC50 is 50 nM in the series on HT 29 (Homo sapiens, HT-29, 144 h); 80 nM in the series with SW 480 (Homo sapiens, SW480, 144 h); 200 nM in the series with B16F10 (Mus musculus, B16-F10, 144 h).

Regarding `CC[C@@]1(OC(=O)[C@@H](CC(C)C)NC(=O)[C@H](CCCCN)NC(=S)Nc2ccc(OC3O[C@@H](C)[C@@H](O)[C@@H](OC)[C@@H]3O)cc2)C(=O)OCc2c1cc1n(c2=O)Cc2cc3ccccc3nc2-1` (stereo partly drawn) [Example 6, 20(S)-20-O-{N^α-[O-(3-O-Methyl-β-L-fuopyranosyl)-4-hydroxy-phenylamino-thiocarbonyl]-L-lysyl-D-leucyl}-camptothecin, hydrochloride], the IC50 turned out to be 30 nM in the series on HT 29 (Homo sapiens, HT-29, 144 h); 60 nM with SW 480 (Homo sapiens, SW480, 144 h); 300 nM with B16F10 (Mus musculus, B16-F10, 144 h).

`CC[C@@]1(OC(=O)[C@H](CC(C)C)NC(=O)[C@H](CCCNC(=N)N)NC(=S)Nc2ccc(OC3O[C@@H](C)[C@@H](O)[C@@H](OC)[C@@H]3O)cc2)C(=O)OCc2c1cc1n(c2=O)Cc2cc3ccccc3nc2-1` (stereo partly drawn) [Example 10, 20(S)-20-O-{N^α-[O-(3-O-Methyl-β-L-fucopyranosyl)-4-hydrdxy-phenylamino-thiocarbonyl]-L-arginyl-L-leucyl}-camptothecin]: the IC50 came to 50 nM in the series with HT 29 (Homo sapiens, HT-29, 144 h); 100 nM in the series on SW 480 (Homo sapiens, SW480, 144 h); 300 nM in the series on B16F10 (Mus musculus, B16-F10, 144 h).

Regarding `CC[C@@]1(OC(=O)[C@H](CC(C)C)NC(=O)[C@H](CCCCN)NC(=S)Nc2ccc(OC3O[C@@H](C)[C@@H](O)[C@@H](OC)[C@@H]3O)cc2)C(=O)OCc2c1cc1n(c2=O)Cc2cc3ccccc3nc2-1` (stereo partly drawn) [Example 7, 20(S)-20-O-{N^α-O-(3-O-Methyl-β-L-fucopyranosyl)-4-hydroxy-phenylamino-thiocarbonyl]-L-lysyl-L-leucyl}-camptothecin, hydrochloride], the IC50 with HT 29 (Homo sapiens, HT-29, 144 h) is 30 nM; with SW 480 (Homo sapiens, SW480, 144 h) it was 80 nM; in the series on B16F10 (Mus musculus, B16-F10, 144 h) it was 20 nM.

For the compound `CC[C@@]1(O)C(=O)OCc2c1cc1n(c2=O)Cc2cc3ccccc3nc2-1` [20(S)-Camptothecin, reference compound], the IC50 was determined as 5 nM with HT 29 (setting [3]), 10 nM in the series on SW 480 (setting [4]) and 20 nM in the series with B16F10 (setting [5]). Moreover, the “Inhibition of the CSF-induced proliferation of mouse bone marrow stem cells IC50” value in series [1] was 0.05 ng/mL.

In the case of `CC[C@@]1(OC(=O)C(CC(C)C)NC(=O)[C@H](CCCCN)NC(=S)Nc2ccc(OC3O[C@@H](C)[C@@H](O)[C@@H](OC)[C@@H]3O)cc2)C(=O)OCc2c1cc1n(c2=O)Cc2cc3ccccc3nc2-1` (stereo partly drawn) [Example 1, 20(S)-20-O-{N^α-[O-(3-O-Methyl-β-L-fucopyranosyl)-4-hydroxy-phenylamino-thiocarbonyl]-L-lysyl-L/D-leucyl}-camptothecin, hydrochloride], the “opt. T/C” value in series [2] (8 mg/kg/day i.v., LXFL 529, optimum on day 14) came out at 0%; in series [2] (setting [6]), 0%. The Survival time in series [2] (8 mg/kg/day i.v., hydrochloride) was 0 days and >28 days (4×); in series [2] (16 mg/kg/day i.v.), more than 28 days. The “Relative body weight on day 7 [% of day 0]” value in series [2] (8 mg/kg/day i.v.) and in series [2] (16 mg/kg/day i.v.) was 95 % of day 0 each time. Besides, the “tumour remission (FIG. 1)” value in series [2] (dose range from 16 to 8 mg/kg, therapy schedule day 1-3 i.v., further experiment) is given as “long-lasting complete remission”. In addition, in series [2], the “therapeutic efficacy (tumour remission)” value is recorded as “complete to marked tumour remission”. Further, the IC50 with HT 29 (Homo sapiens, HT-29, 144 h) came to 40 nM; in the series with SW 480 (Homo sapiens, SW480, 144 h), 70 nM; with B16F10 (Mus musculus, B16-F10, 144 h), 200 nM.

Turning to `CC[C@@]1(OC(=O)[C@@H](NC(=O)[C@H](Cc2cnc[nH]2)NC(=S)Nc2ccc(O[C@H]3O[C@@H](C)[C@@H](O)[C@@H](OC)[C@@H]3O)cc2)C(C)C)C(=O)OCc2c1cc1n(c2=O)Cc2cc3ccccc3nc2-1.Cl` [Example 9, 20(S)-20-O-{N^α-[O-(3-O-Methyl-β-L-fucopyranosyl)-4-hydroxy-phenylamino-thiocarbonyl]-L-histidyl-L-valyl}-camptothecin, hydrochloride], the results for the IC50 in the series with HT 29 (setting [3]), with SW 480 (setting [4]) and in the series with B16F10 (setting [5]) were 70 nM, 200 nM and 400 nM, respectively. For the same compound, in series [1], the “Inhibition of the CSF-induced proliferation of mouse bone marrow stem cells IC50” value turned out to be 15 ng/mL.

As to `CC[C@@]1(OC(=O)[C@@H](NC(=O)[C@H](CCCCN)NC(=S)Nc2ccc(OC3O[C@@H](C)[C@@H](O)[C@@H](OC)[C@@H]3O)cc2)C(C)C)C(=O)OCc2c1cc1n(c2=O)Cc2cc3ccccc3nc2-1` (stereo partly drawn) [Example 8, 20(S)-20-O-{N^α-[-(3-O-Methyl-β-L-fucopyranosyl)-4-hydroxy-phenylamino-thiocarbonyl]-L-lysyl-L-valyl}-camptothecin, hydrochloride], the IC50 with HT 29 (Homo sapiens, HT-29, 144 h) turned out to be 100 nM; with SW 480 (Homo sapiens, SW480, 144 h), 200 nM; with B16F10 (Mus musculus, B16-F10, 144 h), 800 nM.

For the compound `CC[C@@]1(OC(=O)[C@@H](CC(C)C)NC(=O)[C@H](CCCN)NC(=S)Nc2ccc(OC3O[C@@H](C)[C@@H](O)[C@@H](OC)[C@@H]3O)cc2)C(=O)OCc2c1cc1n(c2=O)Cc2cc3ccccc3nc2-1` (stereo partly drawn) [Example 4, 20(S)-20-O-{N^α-[O-(3-O-Methyl-β-L-fucopyranosyl)-4-hydroxy-phenylamino-thiocarbonyl]-L-ornithyl-D-leucyl}-camptothecin, hydrochloride], the IC50 came to 20 nM in the series on HT 29 (Homo sapiens, HT-29, 144 h); 100 nM in the series with SW 480 (Homo sapiens, SW480, 144 h); 500 nM in the series with B16F10 (Mus musculus, B16-F10, 144 h).

Consider `CCC1(OC(=O)C(NC(=O)[C@H](Cc2c[nH]cn2)NC(=S)Nc2ccc(OC3OC(C)C(O)C(OC)C3O)cc2)C(C)C)C(=O)OCc2c1cc1n(c2=O)Cc2cc3ccccc3nc2-1.Cl` (stereo partly drawn) [Example 2, 20(S)-20-O-{N-[O-(3-O-Methyl-β-L-fucopyranosyl)-4-hydroxy-phenylamino-thiocarbonyl]-L-histidyl-L/D-valyl}-camptothecin, hydrochloride], for which the “opt. T/C” value in series [2] (setting [6]) was 3.3%; in series [2] (32 mg/kg/day i.v., LXFL 529, optimum on day 21), 0%. The Survival time in series [2] (16 mg/kg/day i.v.) is more than 28 days; in series [2] (32 mg/kg/day i.v., hydrochloride), >28 days (3×) and 20 days and 1 days. The “Relative body weight on day 7 [% of day 0]” value was 103 % of day 0 in series [2] (16 mg/kg/day i.v.) and 98 % of day 0 in series [2] (32 mg/kg/day i.v.). Besides, the “therapeutic efficacy (tumour remission)” value in series [2] is given as “complete to marked tumour remission”. For the same compound, the IC50 stood at 40 nM in the series on HT 29 (Homo sapiens, HT-29, 144 h); 100 nM with SW 480 (Homo sapiens, SW480, 144 h); 300 nM with B16F10 (Mus musculus, B16-F10, 144 h).

With `CC[C@@]1(OC(=O)[C@@H](CC(C)C)NC(=O)[C@@H](CCCCN)NC(=S)Nc2ccc(OC3O[C@@H](C)[C@@H](O)[C@@H](OC)[C@@H]3O)cc2)C(=O)OCc2c1cc1n(c2=O)Cc2cc3ccccc3nc2-1` (stereo partly drawn) [Example 3, 20(S)-20-O-{N^α-[O-(3-O-Methyl-β-L-fucopyranosyl)-4-hydroxy-phenylamino-thiocarbonyl]-D-lysyl-D-leucyl}-camptothecin, hydrochloride], the IC50 stood at 20 nM in the series with HT 29 (Homo sapiens, HT-29, 144 h); 100 nM with SW 480 (Homo sapiens, SW480, 144 h); 500 nM in the series on B16F10 (Mus musculus, B16-F10, 144 h).

These data come from patent US6506734B1, “20(S) camptothecin glycoconjugates” (Bayer Aktiengesellschaft, priority 1997, dated 2003).
